Literature values in publication PMC7904743, “WIDOCK: a reactive docking protocol for virtual screening of covalent inhibitors” (Journal of Computer-Aided Molecular Design, 2021).
Like-named read-outs stand apart in the source and are kept apart here.

What was measured:
NUDT7 = conditions: protein labeling at 200 μM; experimental actives if % labeling higher than 50%; cited from earlier work
[1] = thiol reactivity, cited from earlier work
OTUB2 = conditions: experimental actives if % labeling higher than 50%; cited from earlier work
[2] = natural log of average rate constant k
[3] = natural logarithm of average rate constant

Row | Compound | NUDT7 % labeling (NUDT7) [%] | ln(avg k) [1, 2] | ln(avg k) [1, 3] | OTUB2 % labeling (OTUB2) [%]
1 | Cc1sc(NC(=O)CCl)c(C#N)c1C [PCM-0102202, Cc1sc(NC(=O)CCl)c(C#N)c1C] | 0 | -15.804 | -15.804 | 0
2 | NC(=O)C1CCCCN1C(=O)CCl (stereo not shown) [PCM-0102203, NC(=O)C1CCCCN1C(=O)CCl] | 0 | -15.988 | -15.988 | 0
3 | COC(=O)c1ccc(NC(=O)CCl)cc1 [PCM-0102204, COC(=O)c1ccc(NC(=O)CCl)cc1] | 0 | -15.628 | -15.628 | 0
4 | CC1Cc2cc(S(N)(=O)=O)ccc2N1C(=O)CCl (stereo not shown) [PCM-0102207, CC1Cc2cc(S(N)(=O)=O)ccc2N1C(=O)CCl] | 7 | -15.427 | -15.427 | 0
5 | Cc1ccc(NC(=O)CCl)cc1Cl [PCM-0102208, Cc1ccc(NC(=O)CCl)cc1Cl] | 19 | -15.859 | -15.859 | 46
6 | O=C(CCl)Nc1cc2c(cc1Cl)OCO2 [PCM-0102209, O=C(CCl)Nc1cc2c(cc1Cl)OCO2] | 13 | -16.385 | -16.385 | 27
7 | COc1cc(Cl)c(C)cc1NC(=O)CCl [PCM-0102210, COc1cc(Cl)c(C)cc1NC(=O)CCl] | 0 | -15.971 | -15.971 | 25
8 | Cc1nnc(NC(=O)CCl)s1 [PCM-0102211, Cc1nnc(NC(=O)CCl)s1] | 0 | -15.999 | -15.999 | 0
9 | CC(NC(=O)CCl)c1ccc(Cl)cc1Cl (stereo not shown) [PCM-0102212, CC(NC(=O)CCl)c1ccc(Cl)cc1Cl] | 54 | -16.295 | -16.295 | 18
10 | O=C(CCl)N1CCN(c2ccccn2)CC1 [PCM-0102213, O=C(CCl)N1CCN(c2ccccn2)CC1] | 0 | -15.928 | -15.928 | 0
11 | Cc1cc(Cl)ccc1NC(=O)CCl [PCM-0102214, Cc1cc(Cl)ccc1NC(=O)CCl] | 8 | -16.385 | -16.385 | 39
12 | CC1CCN(C(=O)CCl)c2ccccc2S1 (stereo not shown) [PCM-0102216, CC1CCN(C(=O)CCl)c2ccccc2S1] | 32 | -16.224 | -16.224 | 0
13 | O=C(CCl)Nc1ccc(F)c(Cl)c1 [PCM-0102217, O=C(CCl)Nc1ccc(F)c(Cl)c1] | 0 | -15.473 | -15.473 | 14
14 | O=C(Nc1ccccc1)C1CCN(C(=O)CCl)CC1 [PCM-0102219, O=C(Nc1ccccc1)C1CCN(C(=O)CCl)CC1] | 0 | -15.089 | -15.089 | 0
15 | CS(=O)(=O)c1ccc(Cl)c(NC(=O)CCl)c1 [PCM-0102220, CS(=O)(=O)c1ccc(Cl)c(NC(=O)CCl)c1] | 5 | -15.663 | -15.663 | 0
16 | CNC(=O)C1CN(C(=O)CCl)c2ccccc2O1 (stereo not shown) [PCM-0102221, CNC(=O)C1CN(C(=O)CCl)c2ccccc2O1] | 0 | -15.966 | -15.966 | 15
17 | N#CC(c1cccs1)N1CCN(C(=O)CCl)CC1 (stereo not shown) [PCM-0102223, N#CC(c1cccs1)N1CCN(C(=O)CCl)CC1] | 0 | -15.143 | -15.143 | 0
18 | Cc1ccc(-n2nc(C)cc2NC(=O)CCl)cc1 [PCM-0102224, Cc1ccc(-n2nc(C)cc2NC(=O)CCl)cc1] | 0 | -16.116 | -16.116 | 35
19 | CC(NC(=O)CCl)c1ccc(F)cc1 (stereo not shown) [PCM-0102228, CC(NC(=O)CCl)c1ccc(F)cc1] | 7 | -15.820 | -15.820 | 20
20 | CC1(NC(=O)CCl)CCS(=O)(=O)C1 (stereo not shown) [PCM-0102230, CC1(NC(=O)CCl)CCS(=O)(=O)C1] | 0 | -16.090 | -16.090 | 0
21 | CCc1nc(NC(=O)CCl)sc1C [PCM-0102231, CCc1nc(NC(=O)CCl)sc1C] | 33 | -15.238 | -15.238 | 0
22 | O=C(CCl)Nc1ccccc1[N+](=O)[O-] [PCM-0102232, O=C(CCl)Nc1ccccc1[N+](=O)[O-]] | 24 | -15.562 | -15.562 | 20
